Measurements from patent US7615361B2, “Toxicity screening methods” (Ceetox, Inc., priority 2006, dated 2009).

What was measured:
[1] = Cell number (propidium iodide); assay type: cell-based; settings: neonatal rat cardiomyocytes; rat cardiomyocytes (CM), 24 HR exposure; read-out: Cell Number TC50
Description: One test compound (Compound A) was received as dry powder and evaluated for potential cytotoxicity in a battery of in vitro assays. The compound was tested using both rat cardiomyocytes (CM) from rat neonates and a rat hepatoma (H4IIE) cell line. […] Camptothecin and rotenone were included as positive control compounds. The cell supernatant or the cells themselves were harvested for biochemical analysis. General cytotoxicity was evaluated by monitoring membrane integrity, mitochondrial function, cell proliferation, oxidative stress, and apoptosis. In addition, interaction with P-glycoprotein (PgP) on H4IIE cells and solubility of the test compound were also assessed. The means of each exposure group (n=3-7) were calculated for each assay performed. Intra assay variation well-to-well was typically less than 10% with plate to plate variation typically less than 20%.
Cell Proliferation: Cell proliferation in each well was measured with propidium iodide (PI). […] The 15 nm shift enhances PI fluorescence approximately 20 times while the excitation maxima are shifted 30-40 nm. During method development experiments, it was determined that Triton-X-100 was the best solution to permeabilize the H4IIE cells thereby allowing the PI access to intracellular RNA and DNA. Fluorescence was measured using a Packard Fusion plate reader or equivalent reader at 540 nm excitation and 610 nm emission. […]

rat cardiomyocytes [2] = assay: MemTox membrane leakage (AK / α-GST); assay type: cell-based; settings: rat, 24 hr
Outline: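 Neonatal rat cardiomyocytes were dosed, and the culture medium was collected at the end of exposure to measure total leaked adenylate kinase (luminescence) and/or α-GST (ELISA, 450/650 nm). Percent dead cells was set against 1 mM digitonin as maximum release, then converted to percent live. Values are means of n=3-7.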

rat cardiomyocytes [3] = assay: Intracellular total glutathione (GSH); assay type: cell-based; settings: rat cardiomyocytes, after 3 hr
Outline: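 Intracellular total glutathione serves as an oxidative-stress marker in neonatal rat cardiomyocytes exposed to compound in vitro. Cells were harvested for biochemical analysis, and values are means of each exposure group (n=3-7).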

Bcl2 = assay: bDNA analysis of mRNA in rat cardiomyocytes; assay type: cell-based; settings: after 6 hr at 10 μM
Description: (§1) Bcl2 is often induced in response to BAX a protein that promotes apoptosis.
(§2) […] Plates were mixed using a DPC 5 Micromix plate shaker at 37° C. for 15-30 minutes to ensure complete lysis of cells. Cell lysis was confirmed using a Nikon inverted microscope. Plates were stored at −80° C. until further analysis.
(§3) bDNA Analysis (Day 1): All solutions were prepared fresh on the day of analysis. Quantigene® bDNA kit components were brought to room temperature prior to use. Chemicals not supplied by Genospectra were obtained from Sigma-Aldrich.
(§4) On the day of analysis, Target Probe Sets were prepared for probe gene sets by adding 25 μL of each probe set component (CE, LE, BL) to 425 μL stock lysis solution using the following probe set concentrations: CE (50 fmol/μL), LE (200 fmol/μL), BL (100 fmol/μL).
(§5) Cell lysis plates were removed from freezer storage and thawed. […] Next, 10 μL of the appropriate Target Probe Set (PS2) was added to each appropriate well of the Capture Plate. Plates were tightly sealed using a plate sealer and incubated at 53° C. for 16-20 hr (overnight).
(§6) bDNA Analysis (Day 2): Wash buffer was prepared in ultra-pure water using 0.1×Saline-Sodium Citrate (SSC) and 0.03% Lithium Lauryl Sulfate (LLS). Amplifier working solution was prepared by adding 10 μL Amplifier to 10 mL Amplifier Diluent per plate.
(§7) Plates were removed from incubator and washed three times with 300 μL wash buffer. […]

BAX = assay: bDNA analysis of mRNA in rat cardiomyocytes; assay type: cell-based; settings: after 1 hr at 10 μM
Description: as §1, §2, §3, §4, §5, §6, §7

ANP = assay: bDNA analysis of mRNA in rat cardiomyocytes; assay type: cell-based; settings: rat cardiomyocytes, 1, 3, 6 and 24 hours
Description: (§8) Hypertrophy of the heart ventricular myocytes is regulated by a complex series of intracellular signaling processes involving angiotensin receptors and a series of down stream gene expression changes (Li et al. 2006). Endothelin-1 (ET-1) induces hypertrophy of cardiomyocytes in vivo and in vitro. The mechanism of ET-1-induced hypertrophy consists in the activation of phospholipase C, protein kinase C, extra cellular signal regulated kinase (ERK) and upregulation of cfos and cjun.
(§9) Expression of ANP and BNP mRNA levels was determined by bDNA analysis of mRNA. ET-1 at 0.1 μM was included as a positive control.
as §2, §3, §4, §5, §6
(§10) Plates were removed from incubator and washed three times with 300 μL wash buffer. Wash buffer was completely removed from plates by aspiration and 100 μL Amplifier working solution was added to each well. Plates were sealed and incubated at 46° C. for 1 hr.
(§11) Label Probe working solution was prepared by adding 10 μL Label Probe to 10 mL Label Probe Diluent per plate. […] Plates were sealed and incubated at 46° C. for 1 hr.

BNP = assay: bDNA analysis of mRNA in rat cardiomyocytes; assay type: cell-based; settings: rat cardiomyocytes, 1, 3, 6 and 24 hours
Description: as §8, §9, §2, §3, §4, §5, §6, §10, §11

[4] = system: reactive oxygen species (ROS); assay: DCFDA fluorescence; assay type: cell-based, rat; settings: 5 μM
Description: The production of reactive oxygen species (ROS) can be measured using 2′-7′dichloro-dihydrofluorescein diacetate (DCFDA).
Dihydro-2′,7′-dichloroflorescin-diacetate (DCFDA) for Monitoring Peroxide Formation: DCFDA (Sigma C-6827) was dissolved in DMSO at a concentration of 205 mM. The stock was diluted to 50 μM in phosphate buffered saline. Cells were preloaded with DCFDA for 1 hour prior to dosing with test compounds. Positive control wells were dosed with freshly prepared 300 μM t-Butyl hydroperoxide (tBHP). After compound exposure, the plates were washed with phosphate buffered saline and read at 485/530 in a Packard Fusion plate reader.
Dihydro-2′,7′-dichloroflorescin-diacetate (DCFDA) for Monitoring Peroxide Formation: Plates were read at 485/530 in a Packard Fusion plate reader or equivalent.

H4IIE cells [5] = assay: Intracellular total glutathione (GSH); assay type: cell-based, rat; settings: rat, 24 h
Outline: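 Rat hepatoma H4IIE cells were exposed to compound in dosing solutions made in complete culture medium, then harvested for biochemical measurement of intracellular total glutathione as an oxidative-stress marker. Values are exposure-group means, n=3-7.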

H4IIE cells [6] = assay: MTT reduction; assay type: cell-based, rat; settings: rat, 24 h
Outline: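 Rat hepatoma H4IIE cells exposed to compound prepared in complete culture medium, with tetrazolium dye (MTT) reduction used as a mitochondrial-function read-out of cytotoxicity. Values are means of each exposure group (n=3-7).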

Compound | CC50 at 24 h [1] | more potent in the heart cells than in liver cells (cell death as marker) (rat cardiomyocytes [2]) | cellular GSH depleted (rat cardiomyocytes [3]) | Bcl2 induction (Bcl2) | BAX increase (BAX) | effect on ANP expression (ANP) | effect on BNP expression (BNP) | increase in DCFDA (ROS related) fluorescence [4] | CC50 (H4IIE cells [5]) | CC50 (H4IIE cells [6]) | MTT affected less in liver cells compared to myocytes (H4IIE cells [6])
CC[C@@]1(O)C(=O)OCc2c1cc1n(c2=O)Cc2cc3ccccc3nc2-1 [CAMPTOTHECIN, Camptothecin] | 293 µM | – | – | – | – | – | – | – | – | – | –
COc1cccc2c1C(=O)c1c(O)c3c(c(O)c1C2=O)C[C@@](O)(C(=O)CO)C[C@@H]3O[C@H]1C[C@H](N)[C@H](O)[C@H](C)O1 [ADRIAMYCIN, Adriamycin] | – | about 2.5 fold | More than 90% | 6 fold | 3 fold | no effect | no effect | 4 fold | 48 µM | 26 µM | approximately 13 fold
